# Activity calls are given as the source filed them.
# Key:
# [1] = molecular target: Serine/threonine-protein kinase pim-1 (Homo sapiens, UniProt P11309); format: functional
# [2] = molecular target: Cell division cycle 7-related protein kinase (Homo sapiens, UniProt O00311); format: functional;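 further: value obtained from a kinome-wide kinase panel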
# [3] = molecular target: Homeodomain-interacting protein kinase 2 (Homo sapiens, UniProt Q9H2X6); format: functional;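 further: measured within a kinome-wide kinase profiling panel, HIPK2 being one panel member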
# [4] = molecular target: MAP kinase-interacting serine/threonine-protein kinase 2 (Homo sapiens, UniProt Q9HBH9); format: functional
# [5] = molecular target: T1, Interleukin-1 receptor-associated kinase 4 (Homo sapiens, UniProt Q9NWZ3); format: functional
# T1 sequence (Q9NWZ3 whole entry): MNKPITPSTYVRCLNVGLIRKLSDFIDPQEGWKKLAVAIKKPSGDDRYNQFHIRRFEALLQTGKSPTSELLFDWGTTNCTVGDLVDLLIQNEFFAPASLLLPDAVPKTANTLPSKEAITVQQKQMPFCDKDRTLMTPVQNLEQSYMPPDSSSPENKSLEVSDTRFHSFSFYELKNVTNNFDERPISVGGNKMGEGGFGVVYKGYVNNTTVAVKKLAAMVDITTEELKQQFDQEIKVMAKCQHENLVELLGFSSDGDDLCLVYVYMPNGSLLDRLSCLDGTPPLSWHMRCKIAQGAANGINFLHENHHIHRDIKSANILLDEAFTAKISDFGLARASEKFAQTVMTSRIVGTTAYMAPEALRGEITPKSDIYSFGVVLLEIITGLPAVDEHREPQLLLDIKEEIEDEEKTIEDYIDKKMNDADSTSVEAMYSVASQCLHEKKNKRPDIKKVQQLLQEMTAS
# [6] = molecular target: Glycogen synthase kinase-3 beta (Homo sapiens, UniProt P49841); format: functional;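 further: value comes from a broad kinome profiling panel, with GSK3B as the panel member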
# [7] = molecular target: cAMP-dependent protein kinase catalytic subunit alpha (Homo sapiens, UniProt P17612); format: functional
# [8] = molecular target: Dual specificity protein kinase CLK4 (Homo sapiens, UniProt Q9HAZ1); format: functional
# [9] = molecular target: Mitogen-activated protein kinase kinase kinase kinase 4 (Homo sapiens, UniProt O95819); format: functional
# Interleukin-8 = Interleukin-8 (Homo sapiens, UniProt P10145); experiment: Dose Response confirmation of uHTS small molecule hits for cystic fibrosis induced NFkb Inhibitors in a PAF-induced IL8 counterscreen.; format: functional; settings: read-out: IC50_Mean
# [10] = HEK293T cell cytotoxicity, dose response, cytotoxicity control for HIV Vif inhibitor project, cherry-picks (AID 652208); format: functional, cell-based
# [11] = Luminescence Cell-Based Dose Retest to Confirm Inhibitors of Cancer Stem Cells. [Related pubchem assays (depositor defined):AID2717, AID2721]; format: functional; settings: Homo sapiens
# INS1 = experiment: beta cell apoptosis inhibitors, cytokine rescue, dose response, luminescence, retest (AID 449756); format: functional, cell-based; settings: Rattus norvegicus;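 further: cell death triggered by IL-1 beta plus TNF-alpha plus IFN-gamma mixture; protective hits raise ATP signal compared with cytokine alone wells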
# [12] = molecular target: 26S proteasome non-ATPase regulatory subunit 14 (Homo sapiens, UniProt O00487); experiment: inhibition of proteasome subunit RPN11 – biochemical, fluorescence polarization, uHTS hits, confirmation (AID 602368); format: functional
# [13] = molecular target: 72 kDa type IV collagenase (Homo sapiens, UniProt P08253); experiment: Dose Response validation of uHTS RPN11 inhibitor hits using a MMP-2 Fluorescence assay.; format: functional
# Prothrombin = Prothrombin (Bos taurus, UniProt P00735); experiment: thrombin inhibition, dose response, biochemical, fluorescence polarization, uHTS hits (AID 602369); format: functional
# [14] = molecular target: Arf-GAP with SH3 domain, ANK repeat and PH domain-containing protein 1 (Homo sapiens, UniProt Q9ULH1); format: functional;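 further: biochemical fluorescence polarization dose–response screen measuring inhibition of ASAP1; ASAP1 GAP domain stimulating GTP hydrolysis by truncated human ARF1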
# [15] = HeLa cell cytotoxicity, dose response, cytotoxicity control for MgcRacGAP inhibitor project (AID 624300); format: functional
# [16] = human group III sPLA2 inhibitors, dose response, biochemical, QFRET, IC50 (AID 743457);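 further: green fluorescence rise as the enzyme cleaves BODIPY PC-A2 in liposomes; potency for inhibition of the enzyme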
# [17] = molecular target: Adenosylmethionine-8-amino-7-oxononanoate aminotransferase (Mycobacterium tuberculosis, UniProt P9WQ81); experiment: Mycobacterium tuberculosis BioA enzyme inhibitor Measured in Biochemical System Using Plate Reader - 2163-02_Inhibitor_Dose_CherryPick_Activity.; format: functional, Mycobacterium tuberculosis UT205
# H9c2 = experiment: cells; format: functional, cell-based; settings: Rattus norvegicus, H9c2, Myocardium;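 further: confirmatory concentration-response retest of ultra-high-throughput screening hits for modulation of myocardial damage; cell death induced by hydrogen peroxide oxidative stress; compound pretreatment for 60 min then peroxide exposure for 2 h; potency is for protecting the cells against peroxide damage rather than for killing them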
# [18] = Counterscreen for inhibitors of Trypanosoma brucei methionyl tRNA synthetase (MetRS): Luminescence-based cell-based high throughput dose response assay to identify compounds that are cytotoxic to Jurkat human T lymphocyte cells.; format: functional
# Genome polyprotein = Genome polyprotein (dengue virus type 2, UniProt P29990); experiment: Dengue-2 NS5 methyltransferase inhibitors, primary screen, biochemical, confirmation dose response (AID 588689); format: functional
# [19] = molecular target: T2, Polyadenylate-binding protein 1 (Homo sapiens, UniProt P11940); experiment: PABP1 MLLE–PAM2 interaction inhibitors, dose response, miRNA deadenylation inhibitor project, biochemical, fluorescence polarization, Cy5-PAM2 peptide, secondary (AID 602260); format: functional; settings: read-out: IC50_Mean
# [20] = molecular target: T2, Polyadenylate-binding protein 1; experiment: PABP1 MLLE–PAM2 binding inhibitor potency, dose response, biochemical, fluorescence polarization, FITC-PAM2 peptide (AID 602259); format: functional; settings: read-out: IC50_Mean
# [21] = molecular target: T3, Sentrin-specific protease 8 (Homo sapiens, UniProt Q96LD8); format: functional
# T3 sequence (Q96LD8 whole entry): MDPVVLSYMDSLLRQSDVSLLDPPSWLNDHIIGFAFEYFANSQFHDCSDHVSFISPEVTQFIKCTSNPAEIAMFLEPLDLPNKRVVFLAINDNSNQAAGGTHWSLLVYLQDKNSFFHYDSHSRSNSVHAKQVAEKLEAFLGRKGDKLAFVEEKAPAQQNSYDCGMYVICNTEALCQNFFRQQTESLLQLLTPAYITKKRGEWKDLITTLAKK
# [22] = molecular target: T3, Sentrin-specific protease 8; format: functional; remark: listed apart in the source
# [23] = inhibitors of intracellular T. cruzi replication, confirmation, NIH3T3 host cells, beta-gal luminescence (AID 2044); format: functional, cell-based;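 further: intracellular parasites grown in NIH/3T3 mouse fibroblasts as host cells; luminescent beta-galactosidase reporter signal from transgenic T. cruzi replicating inside host cells; inhibitors lower the luminescence signal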
# [24] = growth suppression of PTEN-null colon cells, dose response, cell-based, HCT116 PTEN knockout (AID 1047); format: functional;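 further: HCT116 colon tumor cells with PTEN knocked out; cells exposed to compound for 60 hours before readout; potency for loss of cell viability measured by luminescence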
# [25] = cytotoxicity toward NIH3T3 fibroblasts, dose response, counter-screen, cell-based, ATP luminescence, mouse fibroblasts (AID 2010); format: functional;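 further: cells exposed to compound for about 90 hours before reading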
# [26] = growth suppression of beta-catenin-knockout colon cells, dose response, cell-based, HCT116, human colon tumor (AID 1045); format: functional;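 further: HCT116 colon tumor cells with beta catenin knocked out; cells exposed to compound for 60 hours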
# [27] = molecular target: Nuclear receptor subfamily 5 group A member 2 (Homo sapiens, UniProt O00482); format: functional, cell-based;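 further: HEK293T cells transfected with LRH-1 and a StAR promoter luciferase reporter; potency for inhibitors that lower LRH-1 driven reporter light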
# Steroidogenic factor 1 = Steroidogenic factor 1 (Homo sapiens, UniProt Q13285); experiment: Counterscreen for inverse agonists of the liver receptor homolog-1 (LRH-1; NR5A2): Luminescence-based cell-based high throughput dose response assay to identify inverse agonists of the Steroidogenic Factor 1 Nuclear Receptor (SF1; NR5A1).; format: functional
# [28] = StAR promoter reporter inhibition counter-screen, dose response, counter-screen for LRH-1 inverse agonist project, cell-based, luminescence, luciferase reporter (AID 651969); format: functional
# [29] = molecular target: T4, Apoptotic protease-activating factor 1 (Homo sapiens, UniProt O14727); experiment: SAR analysis of small molecule Activators of Apaf-1 in a Fluorescent assay.; format: functional; settings: read-out: EC50_Mean;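 further: caspase-3 cleavage of fluorogenic Rh110 DEVD substrate downstream of apoptosome activation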
# T4 sequence (O14727 whole entry): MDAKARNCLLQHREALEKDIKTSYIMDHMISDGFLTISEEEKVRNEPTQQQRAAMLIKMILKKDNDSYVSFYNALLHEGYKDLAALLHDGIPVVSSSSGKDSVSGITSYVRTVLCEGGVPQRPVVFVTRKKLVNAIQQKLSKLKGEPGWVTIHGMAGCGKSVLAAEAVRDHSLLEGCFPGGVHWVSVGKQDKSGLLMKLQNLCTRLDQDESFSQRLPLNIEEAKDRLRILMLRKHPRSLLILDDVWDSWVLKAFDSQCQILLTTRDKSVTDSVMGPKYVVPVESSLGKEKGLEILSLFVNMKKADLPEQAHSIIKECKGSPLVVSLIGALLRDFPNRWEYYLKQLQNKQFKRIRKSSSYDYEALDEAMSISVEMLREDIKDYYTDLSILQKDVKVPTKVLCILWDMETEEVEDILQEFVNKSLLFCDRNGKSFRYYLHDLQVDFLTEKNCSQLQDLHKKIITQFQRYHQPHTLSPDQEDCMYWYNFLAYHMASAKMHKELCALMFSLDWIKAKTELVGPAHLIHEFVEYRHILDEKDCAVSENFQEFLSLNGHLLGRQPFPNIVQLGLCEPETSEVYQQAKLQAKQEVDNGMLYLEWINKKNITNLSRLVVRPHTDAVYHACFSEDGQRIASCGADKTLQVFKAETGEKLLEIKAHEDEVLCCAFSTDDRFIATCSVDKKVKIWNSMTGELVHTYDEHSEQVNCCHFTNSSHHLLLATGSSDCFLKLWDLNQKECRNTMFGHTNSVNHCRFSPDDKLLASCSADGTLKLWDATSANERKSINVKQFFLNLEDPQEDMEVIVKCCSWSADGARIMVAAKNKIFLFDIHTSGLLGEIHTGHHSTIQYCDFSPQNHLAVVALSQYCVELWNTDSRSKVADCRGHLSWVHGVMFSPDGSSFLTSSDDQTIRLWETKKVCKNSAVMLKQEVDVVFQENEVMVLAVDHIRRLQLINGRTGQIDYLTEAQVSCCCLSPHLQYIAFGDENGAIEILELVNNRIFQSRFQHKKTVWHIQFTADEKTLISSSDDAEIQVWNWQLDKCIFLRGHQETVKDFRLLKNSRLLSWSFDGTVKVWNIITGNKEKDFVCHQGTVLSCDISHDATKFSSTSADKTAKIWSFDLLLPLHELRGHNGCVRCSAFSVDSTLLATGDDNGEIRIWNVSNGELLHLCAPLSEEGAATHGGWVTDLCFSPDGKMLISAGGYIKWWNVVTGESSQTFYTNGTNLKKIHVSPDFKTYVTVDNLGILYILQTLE
# Homeodomain-interacting protein kinase 2, sequence (Q9H2X6 whole entry): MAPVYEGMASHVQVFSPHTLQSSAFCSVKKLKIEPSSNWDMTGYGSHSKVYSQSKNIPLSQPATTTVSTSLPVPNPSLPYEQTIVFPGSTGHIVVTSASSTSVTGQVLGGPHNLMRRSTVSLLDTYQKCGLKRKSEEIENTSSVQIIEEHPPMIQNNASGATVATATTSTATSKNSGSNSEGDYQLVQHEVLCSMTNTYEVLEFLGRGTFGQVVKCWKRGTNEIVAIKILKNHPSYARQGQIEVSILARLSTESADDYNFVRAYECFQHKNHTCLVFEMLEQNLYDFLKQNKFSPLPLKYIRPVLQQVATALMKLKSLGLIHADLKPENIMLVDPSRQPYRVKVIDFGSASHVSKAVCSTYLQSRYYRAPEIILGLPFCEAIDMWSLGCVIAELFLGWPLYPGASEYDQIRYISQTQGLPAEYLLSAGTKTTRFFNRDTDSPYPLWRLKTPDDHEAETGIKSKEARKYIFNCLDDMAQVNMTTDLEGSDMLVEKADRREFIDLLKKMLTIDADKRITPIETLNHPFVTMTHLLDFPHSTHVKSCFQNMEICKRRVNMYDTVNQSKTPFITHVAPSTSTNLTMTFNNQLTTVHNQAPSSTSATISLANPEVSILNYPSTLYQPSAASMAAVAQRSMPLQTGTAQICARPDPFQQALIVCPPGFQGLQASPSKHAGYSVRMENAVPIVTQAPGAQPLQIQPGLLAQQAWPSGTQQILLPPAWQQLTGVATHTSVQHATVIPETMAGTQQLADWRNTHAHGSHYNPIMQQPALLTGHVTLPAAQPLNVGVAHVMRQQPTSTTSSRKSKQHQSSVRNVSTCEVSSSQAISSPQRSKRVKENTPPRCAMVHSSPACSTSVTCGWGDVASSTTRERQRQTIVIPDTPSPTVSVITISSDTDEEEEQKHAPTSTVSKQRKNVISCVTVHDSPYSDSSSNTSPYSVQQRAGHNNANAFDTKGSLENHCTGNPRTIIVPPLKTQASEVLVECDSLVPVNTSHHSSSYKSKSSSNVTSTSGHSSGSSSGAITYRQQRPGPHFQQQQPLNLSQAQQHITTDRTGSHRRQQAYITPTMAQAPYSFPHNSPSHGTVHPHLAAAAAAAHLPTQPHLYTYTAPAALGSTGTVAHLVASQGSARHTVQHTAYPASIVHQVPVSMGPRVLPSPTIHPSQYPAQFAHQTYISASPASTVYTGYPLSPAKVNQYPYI
# T2 sequence (P11940 whole entry): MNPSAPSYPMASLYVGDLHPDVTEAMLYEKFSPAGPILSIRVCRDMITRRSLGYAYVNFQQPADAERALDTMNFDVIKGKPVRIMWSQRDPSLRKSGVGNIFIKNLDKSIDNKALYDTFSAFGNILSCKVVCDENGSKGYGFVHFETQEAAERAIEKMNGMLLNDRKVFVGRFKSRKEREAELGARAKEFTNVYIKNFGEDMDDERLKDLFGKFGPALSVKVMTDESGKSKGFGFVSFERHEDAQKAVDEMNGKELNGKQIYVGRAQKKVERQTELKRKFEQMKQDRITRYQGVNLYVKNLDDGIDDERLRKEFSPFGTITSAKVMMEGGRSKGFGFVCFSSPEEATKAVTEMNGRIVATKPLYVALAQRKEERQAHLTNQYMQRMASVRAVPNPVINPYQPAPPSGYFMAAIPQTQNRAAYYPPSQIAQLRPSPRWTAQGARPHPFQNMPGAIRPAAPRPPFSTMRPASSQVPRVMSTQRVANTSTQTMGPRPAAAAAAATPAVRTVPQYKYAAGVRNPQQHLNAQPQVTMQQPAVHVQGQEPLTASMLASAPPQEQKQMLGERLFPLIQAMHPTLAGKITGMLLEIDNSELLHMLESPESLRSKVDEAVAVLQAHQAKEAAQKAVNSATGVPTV
# Nuclear receptor subfamily 5 group A member 2, sequence (O00482 whole entry): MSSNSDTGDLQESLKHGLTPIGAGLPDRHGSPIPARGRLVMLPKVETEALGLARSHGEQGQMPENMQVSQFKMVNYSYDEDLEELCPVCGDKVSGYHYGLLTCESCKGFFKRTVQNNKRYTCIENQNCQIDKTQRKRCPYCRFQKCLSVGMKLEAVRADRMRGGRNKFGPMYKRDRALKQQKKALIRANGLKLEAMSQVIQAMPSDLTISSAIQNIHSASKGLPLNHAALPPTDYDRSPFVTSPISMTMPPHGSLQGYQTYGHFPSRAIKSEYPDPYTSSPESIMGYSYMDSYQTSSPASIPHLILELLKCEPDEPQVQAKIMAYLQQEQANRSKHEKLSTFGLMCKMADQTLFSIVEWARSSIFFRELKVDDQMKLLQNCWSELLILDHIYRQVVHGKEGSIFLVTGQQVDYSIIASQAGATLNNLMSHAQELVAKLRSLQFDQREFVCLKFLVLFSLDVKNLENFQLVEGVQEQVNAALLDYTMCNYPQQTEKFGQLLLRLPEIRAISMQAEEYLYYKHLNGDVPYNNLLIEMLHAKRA
# Adenosylmethionine-8-amino-7-oxononanoate aminotransferase, sequence (P9WQ81 whole entry): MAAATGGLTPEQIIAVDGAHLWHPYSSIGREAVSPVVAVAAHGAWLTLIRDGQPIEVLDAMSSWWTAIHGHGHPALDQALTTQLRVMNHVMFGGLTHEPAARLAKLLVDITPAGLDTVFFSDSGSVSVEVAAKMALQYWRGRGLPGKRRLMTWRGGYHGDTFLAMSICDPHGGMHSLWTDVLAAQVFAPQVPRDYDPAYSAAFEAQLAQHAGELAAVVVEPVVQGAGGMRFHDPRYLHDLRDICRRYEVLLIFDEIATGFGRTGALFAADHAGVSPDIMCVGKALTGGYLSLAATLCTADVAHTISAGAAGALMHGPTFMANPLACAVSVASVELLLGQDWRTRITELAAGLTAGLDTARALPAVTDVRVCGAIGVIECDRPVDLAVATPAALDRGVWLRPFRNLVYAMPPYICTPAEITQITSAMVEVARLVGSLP
# Steroidogenic factor 1, sequence (Q13285 whole entry): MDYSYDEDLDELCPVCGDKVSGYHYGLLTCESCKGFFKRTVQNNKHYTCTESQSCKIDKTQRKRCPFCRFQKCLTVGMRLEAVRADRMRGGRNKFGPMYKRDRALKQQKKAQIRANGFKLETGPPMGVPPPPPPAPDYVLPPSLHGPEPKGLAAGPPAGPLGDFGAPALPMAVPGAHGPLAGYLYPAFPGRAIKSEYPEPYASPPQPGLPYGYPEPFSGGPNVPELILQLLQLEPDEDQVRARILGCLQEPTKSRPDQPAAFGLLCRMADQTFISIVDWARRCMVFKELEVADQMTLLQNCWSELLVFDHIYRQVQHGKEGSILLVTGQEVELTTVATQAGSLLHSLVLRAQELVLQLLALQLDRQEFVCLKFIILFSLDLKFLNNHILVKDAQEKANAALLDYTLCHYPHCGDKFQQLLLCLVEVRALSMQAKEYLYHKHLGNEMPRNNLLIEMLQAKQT
# Serine/threonine-protein kinase pim-1, sequence (P11309 whole entry): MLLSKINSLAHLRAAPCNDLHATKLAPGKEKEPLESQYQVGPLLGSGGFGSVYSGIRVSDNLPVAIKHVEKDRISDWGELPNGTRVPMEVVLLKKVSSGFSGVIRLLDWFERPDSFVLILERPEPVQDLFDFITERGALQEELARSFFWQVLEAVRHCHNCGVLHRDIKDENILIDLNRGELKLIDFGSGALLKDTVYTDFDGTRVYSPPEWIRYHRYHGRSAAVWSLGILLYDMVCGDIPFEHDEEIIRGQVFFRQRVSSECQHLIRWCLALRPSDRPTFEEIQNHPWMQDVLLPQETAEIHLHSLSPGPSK
# Arf-GAP with SH3 domain, ANK repeat and PH domain-containing protein 1, sequence (Q9ULH1 whole entry, the tested form may be a part): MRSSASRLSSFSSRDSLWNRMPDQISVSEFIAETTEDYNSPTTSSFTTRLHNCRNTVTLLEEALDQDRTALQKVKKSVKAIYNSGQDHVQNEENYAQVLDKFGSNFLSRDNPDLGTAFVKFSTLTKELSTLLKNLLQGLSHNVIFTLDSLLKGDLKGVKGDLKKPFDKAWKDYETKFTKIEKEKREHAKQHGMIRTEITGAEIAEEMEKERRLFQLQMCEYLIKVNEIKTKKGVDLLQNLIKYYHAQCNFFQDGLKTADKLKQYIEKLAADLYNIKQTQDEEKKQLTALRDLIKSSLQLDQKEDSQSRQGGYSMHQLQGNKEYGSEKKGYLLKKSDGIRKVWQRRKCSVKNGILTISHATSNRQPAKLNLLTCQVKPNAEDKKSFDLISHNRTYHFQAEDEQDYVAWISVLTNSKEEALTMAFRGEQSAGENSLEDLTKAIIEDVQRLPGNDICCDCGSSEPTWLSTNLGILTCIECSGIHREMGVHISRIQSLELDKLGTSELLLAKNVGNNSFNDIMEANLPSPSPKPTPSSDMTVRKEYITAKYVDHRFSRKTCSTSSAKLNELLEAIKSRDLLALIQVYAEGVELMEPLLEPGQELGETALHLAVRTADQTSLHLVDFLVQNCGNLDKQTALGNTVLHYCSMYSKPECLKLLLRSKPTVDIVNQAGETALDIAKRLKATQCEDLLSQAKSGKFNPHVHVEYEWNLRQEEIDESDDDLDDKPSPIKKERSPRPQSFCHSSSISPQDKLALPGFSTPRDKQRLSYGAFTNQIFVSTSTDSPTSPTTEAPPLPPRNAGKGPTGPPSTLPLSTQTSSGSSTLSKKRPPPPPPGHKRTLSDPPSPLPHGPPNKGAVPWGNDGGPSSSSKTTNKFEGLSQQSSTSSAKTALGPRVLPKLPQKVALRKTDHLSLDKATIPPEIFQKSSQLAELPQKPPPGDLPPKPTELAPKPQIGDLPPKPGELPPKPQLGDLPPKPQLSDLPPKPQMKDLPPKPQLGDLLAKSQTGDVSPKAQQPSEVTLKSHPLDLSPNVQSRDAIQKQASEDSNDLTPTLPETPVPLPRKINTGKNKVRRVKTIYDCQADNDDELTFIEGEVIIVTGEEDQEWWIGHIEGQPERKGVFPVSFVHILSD
# Interleukin-8, sequence (P10145 whole entry): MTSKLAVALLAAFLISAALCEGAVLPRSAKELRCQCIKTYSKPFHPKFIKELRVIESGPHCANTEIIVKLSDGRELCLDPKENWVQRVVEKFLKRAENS
smiles,measurement,setting,value
c1ccc(Cn2nnc(-c3ccc4[nH]ncc4c3)c2-c2ccccc2)cc1,Ki,[1],3.16 µM (active)
same,Ki,[2],0.000631 µM (active)
same,Ki,[3],1 µM (active)
same,Ki,[4],0.0398 µM (active)
same,Ki,[5],> 10 µM (inactive)
same,Ki,[6],0.01 µM (active)
same,Ki,[7],0.0316 µM (active)
same,Ki,[8],0.00501 µM (active)
same,Ki,[9],0.794 µM (active)
CC(=O)Oc1ccccc1C(=O)Oc1ccc(/C=N/n2cnnc2)cc1,IC50,Interleukin-8,4.67 µM (active)
CCOc1cccc(C(=O)Nc2ccc3oc(Cc4ccc(Cl)cc4)nc3c2)c1,AC50,[10],> 52 µM (inactive)
O=C(N/N=C/c1cc(Cl)ccc1O)c1ccc(Br)cc1,AC50,[11],1.09 µM (active)
same,AC50,INS1,0.773 µM (active)
same,IC50,[12],12.7 µM (active)
same,IC50,[13],10.3 µM (active)
same,IC50,Prothrombin,63.2 µM (active)
same,IC50,[14],21.3 µM (inactive)
COc1ccccc1NC(=O)NNC(=O)c1ccc2ccccc2c1O,CC50,[15],100 µM (active)
same,IC50,[16],> 122 µM (inactive)
O=C(Nc1nccs1)[C@H]1[C@H](CO)[C@H]2Cn3c(ccc(-c4cccnc4)c3=O)[C@H]2N1CC1CCCC1,AC50,[17],8.95 µM (active)
Cc1cc(Cl)ccc1OCCCC(=O)NNC(=O)c1ccccc1O,IC50,H9c2,> 79 µM (inactive)
same,IC50,[18],83.3 µM (inactive)
Oc1ccc(CN2CCCCC2)nc1O,IC50,Genome polyprotein,64.9 µM (active)
same,IC50,[19],> 66 µM (inactive)
same,IC50,[20],57.9 µM (inactive)
same,IC50,[21],15.5 µM (active)
same,IC50,[22],3.73 µM (active)
c1cnc2[nH]cc(-c3ccnc(NCC4CCCCC4)n3)c2c1,Ki,[1],> 10 µM (inactive)
same,Ki,[2],0.00794 µM (active)
same,Ki,[3],0.0158 µM (active)
same,Ki,[4],0.0794 µM (active)
same,Ki,[5],0.316 µM (active)
same,Ki,[6],0.126 µM (active)
same,Ki,[7],0.2 µM (active)
same,Ki,[9],0.02 µM (active)
CC(C)n1nc(C(=O)Nc2ccc(-n3cnnn3)cc2)c2ccccc2c1=O,AC50,[10],> 52 µM (inactive)
N#Cc1cc([N+](=O)[O-])ccc1Oc1cccc(/C=N/NC(=O)c2ccc(Cl)cc2)c1,EC50,[23],0.616 µM (active)
same,EC50,[24],48.5 µM (active)
same,EC50,[25],> 60 µM (not active)
same,EC50,[26],51.9 µM (active)
same,IC50,[14],32.8 µM (inactive)
Cc1ccc(NC(=O)CSc2nnc([C@@H]3CCCN3C(=O)OC(C)(C)C)o2)c(C)c1,IC50,[27],1.33 µM (active)
same,IC50,Steroidogenic factor 1,0.932 µM (active)
same,IC50,[28],35.9 µM (inactive)
COC(=O)[C@@H]1COC(c2cc([N+](=O)[O-])ccc2[N+](=O)[O-])=N1,EC50,[29],> 100 µM (inactive)
COc1ccc(NC(=O)CSc2ccc3c(c2)OCCO3)cc1,IC50,[27],35.9 µM (inactive)
same,IC50,Steroidogenic factor 1,5.7 µM (active)
same,IC50,[28],35.9 µM (inactive)
O=C(C[C@@H]1C[C@@H]2c3cc(NC(=O)c4cccnc4)ccc3O[C@@H]2[C@@H](CO)O1)NCCc1ccccc1,AC50,[17],6.92 µM (active)
